The text below walks through data of PMC2861598, “Ligand Binding and Crystal Structures of the Substrate-Binding Domain of the ABC Transporter OpuA” (PLoS ONE, 2010).

The target in series [1] is OpuA in a lipidic environment. More on the design: method as in PMID 14609945. Conditions: read-out: dissociation constant; cited from earlier work.
Another series concerns OpuAΔCBS. The series is described as follows: Ligand binding to OpuAΔCBS. More on the design: species or system Lactococcus lactis. Conditions: data not shown.
The target of series [2] is T1, purified OpuA (Lactococcus lactis subsp. lactis, UniProt Q7DAU8).
T1 sequence (Q7DAU8 1-573): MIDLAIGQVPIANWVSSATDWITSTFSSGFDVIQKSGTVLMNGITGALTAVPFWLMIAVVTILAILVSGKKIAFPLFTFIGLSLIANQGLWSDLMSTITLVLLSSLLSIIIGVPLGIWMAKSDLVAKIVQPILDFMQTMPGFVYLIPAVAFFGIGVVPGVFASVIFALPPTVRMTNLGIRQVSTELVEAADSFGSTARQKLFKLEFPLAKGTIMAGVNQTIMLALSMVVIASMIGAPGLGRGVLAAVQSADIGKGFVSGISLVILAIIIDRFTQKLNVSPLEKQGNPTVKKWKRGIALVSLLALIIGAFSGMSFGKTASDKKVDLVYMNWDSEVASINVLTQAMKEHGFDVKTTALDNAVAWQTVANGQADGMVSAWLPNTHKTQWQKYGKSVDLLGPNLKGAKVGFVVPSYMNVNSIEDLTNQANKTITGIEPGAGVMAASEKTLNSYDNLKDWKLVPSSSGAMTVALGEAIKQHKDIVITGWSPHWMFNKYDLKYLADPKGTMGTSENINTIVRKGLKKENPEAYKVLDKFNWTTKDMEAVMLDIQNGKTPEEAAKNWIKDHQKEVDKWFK
T1 sequence (Q9KIF7 1-408 partner): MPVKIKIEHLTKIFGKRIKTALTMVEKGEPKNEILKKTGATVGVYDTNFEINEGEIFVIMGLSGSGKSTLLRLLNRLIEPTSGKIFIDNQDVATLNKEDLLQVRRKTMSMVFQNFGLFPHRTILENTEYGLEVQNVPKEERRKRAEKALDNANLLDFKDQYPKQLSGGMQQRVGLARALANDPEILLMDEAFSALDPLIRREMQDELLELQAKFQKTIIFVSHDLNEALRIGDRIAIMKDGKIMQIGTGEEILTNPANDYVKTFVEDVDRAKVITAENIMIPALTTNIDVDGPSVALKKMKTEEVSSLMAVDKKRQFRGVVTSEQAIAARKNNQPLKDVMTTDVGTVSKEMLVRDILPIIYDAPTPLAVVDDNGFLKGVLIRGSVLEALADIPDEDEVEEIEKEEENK
The series is described as follows: Glycine betaine binding to purified DDM-solubilized OpuA, intrinsic protein fluorescence. The note with it: for Kd / ΔFmax: pH7.0. How it is done:
(§1) Fluorescence spectra were obtained with a Fluorolog®-3 (Jobin Yvon) spectrofluorometer. A quartz-cuvette containing 800 µL of protein sample was incubated for 10 minutes at 25°C under constant stirring before stepwise addition of the substrate (or buffer as control), using a Hamilton syringe pump (Harvard apparatus). Samples were incubated for 5 seconds before the fluorescence signal was collected for 20 seconds to obtain an averaged value at each substrate concentration.
(§2) For the intrinsic protein fluorescence measurements, the excitation and emission wavelengths were 295 and 360 nm (and slit widths of 1 and 5 nm), respectively. To determine the salt dependence of ligand-binding to purified OpuA, the buffer was exchanged to various KPi concentrations (12.5–250 mM), pH 7.0, 20% glycerol and 0.05% DDM, using a NAP10 column (GE Healthcare). Corrections for background fluorescence changes were made by titrations with buffer.
(§3) Fluorescence titrations were analyzed essentially as described by Lanfermeijer. Curve fitting was performed in Origin (OriginLab).

The target of series [3] is T2, OpuAC (Lactococcus lactis, UniProt Q9RQ05).
T2 sequence (Q9RQ05 320-573): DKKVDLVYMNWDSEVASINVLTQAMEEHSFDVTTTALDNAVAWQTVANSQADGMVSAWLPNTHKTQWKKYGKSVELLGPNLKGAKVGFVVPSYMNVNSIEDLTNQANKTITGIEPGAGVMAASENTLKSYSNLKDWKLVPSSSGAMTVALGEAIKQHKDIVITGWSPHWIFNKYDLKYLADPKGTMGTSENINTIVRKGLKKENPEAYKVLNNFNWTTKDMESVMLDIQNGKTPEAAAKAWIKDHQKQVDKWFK
The series is described as follows: Isothermal titration calorimetry of glycine betaine binding. Conditions: ITC. The protocol: 200 µL of OpuAC (concentrated to 50 µM in 150 mM KPi, pH 7) was added to the cell. […] Typically, 20 injections of 2 µL volume were made with intervals of 120 seconds between each addition.
On the technique in general: ITC needs no label: the signal is the heat of the interaction.

Series [4] relates to OpuA reconstituted in proteoliposomes. The series is described as follows: Substrate transport in OpuA-containing proteoliposomes, filter-based assay. The note with it: 14C-labeled substrate, 50 µM (51 µM) or 5 mM, up to 30 min, 200 mM KPi pH 7 external. Format: biochemical, Lactococcus lactis. How it is done: Proteoliposomes were prepared as described previously by Geertsma et al. with an ATP regenerating system present and using 200 mM KPi, pH 7, as external medium. The transport activity was measured using a filter-based assay as described by Geertsma et al. in a time dependent way (up to 30 min), using a fixed concentration of 50 µM or 5 mM of substrate.

The target of series [5] is T3, OpuAC (substrate-binding domain of OpuA) (Lactococcus lactis, UniProt Q9RQ05).
T3 sequence (Q9RQ05 320-573): T2 sequence (Q9RQ05 320-573)
The series is described as follows: Ligand binding to purified OpuAC, intrinsic protein fluorescence (direct titration). Conditions: for ΔFmax: pH7.0. The protocol: as §1, §2, §3

For series [6], the target named is T1, purified OpuA. The series is described as follows: Filter-based assay with radio-labeled glycine betaine (ammonium sulfate precipitation). Format: binding. How it is done: This method is based on the principle that upon salting-out of the protein (by ammonium sulfate), the substrate remains trapped in the ligand-binding site. For these measurements, purified OpuA in the presence of 0.05% (w/v) n-dodecyl-β-maltopyranoside (DDM) was mixed such that the protein (at a final concentration of 100 µg/mL) was in a buffer composed of 10, 50 or 250 mM KPi pH7.0, 20% glycerol and 0.05% DDM. The binding assays were carried in a volume of 100 µL. […] The mixture was filtered rapidly through 0.45 µm pore-size cellulose nitrate filters. The filters were washed twice with 2 ml ammonium sulfate solution. Subsequently, the filters were placed in an open plastic vial and dried under heating in an oven at 37°C for 2 hours. The radioactivity on the filters was measured via liquid scintillation counting, using emulsifier plus scintillation liquid (Perkin Elmer). Measurements were corrected for background signals and the average of the corrected data was fitted as described under fluorescence measurements.

The test system of the next series is OpuAΔSBD. The series is described as follows: Ligand binding to OpuAΔSBD. More on the design: species or system Lactococcus lactis. The note with it: data not shown.
For series [7], the target named is T1, purified OpuA. The series is described as follows: Glycine betaine binding to purified DDM-solubilized OpuA, intrinsic protein fluorescence. Conditions: OpuA solubilized in DDM; over all salt concentrations (10–250 mM KPi); read-out: dissociation constant (Kd).
Series [8] deals with T2, OpuAC. The series is described as follows: Competitive inhibition of glycine betaine-induced fluorescence changes. In kind it is binding. How it is done:
as §1, §2, §3

Several values for one entry are separate records, joined by “and”; a condition that tells them apart may be missing. Equal entries are not always repeated. Entries after “also recorded” stand apart in the source; their conditions may differ. Where two headings read alike, the source gives them in different places.

For the compound `C[N+](C)(C)CC(=O)[O-]` [glycine betaine], the Kd in [1] is about 0.5 µM; at purified OpuA [2] (12.5 mM KPi) it was 6 ± 0.5 µM; at purified OpuA [2] (50 mM KPi), 6 ± 0.7 µM; on purified OpuA [2] (250 mM KPi) it was 5.2 ± 0.2 µM; on purified OpuA [6] (averaged from duplicate measurements for all salt concentrations (10, 50, 250 mM KPi), 30°C), 7.3 µM; at purified OpuA [7] it was 4 to 6 µM and 5 to 6 µM. Besides, the “effect of deletion of the CBS domains on dissociation constant” value with OpuAΔCBS was “did not alter the dissociation constant”. Moreover, the “increase of dissociation constant in DDM-solubilized state versus lipidic environment” value at purified OpuA [2] was “around 10 fold”. For the same compound, the ΔFmax on purified OpuA [2] (12.5 mM KPi) came out at 9.9±0.3%; at purified OpuA [2] (50 mM KPi), 10.8±0.4%; at purified OpuA [2] (250 mM KPi), 9.3±0.2%; in series [5] (OpuAC, 12.5 mM KPi), 23.6±1.1%; in [5] (OpuAC, 50 mM KPi), 23.4±0.9%; in series [5] (OpuAC, 250 mM KPi), 23.1±1.2%. In addition, the maximal fluorescence change on purified OpuA [2] (over all salt concentrations) is 9–11%; in series [5] (OpuAC, over all salt concentrations) it was 23–24%. Also, at OpuAC [3] (50 µM OpuAC, 150 mM KPi pH 7, 25°C), the “glycine betaine bound per mol of OpuAC” value came to 0.7 mol. Moreover, at OpuAC [3] (25°C), the Gibbs free energy was -7.5 kcal/mol. On OpuAC [3] (25°C), the “enthalpy change (ΔH)” value was -3.8 ± 0.1 kcal/mol. For the same compound, the “transport into OpuA-containing proteoliposomes” value in series [4] is given as “transported against a concentration gradient; also recorded: transport against a large concentration gradient”. Besides, in series [5] (19.6 µM OpuAC in 150 mM KPi pH 7.0), the bound glycine betaine is 0.74 mol glycine betaine per mol of OpuAC. The bound substrate in [5] (19.6 µM OpuAC in 150 mM KPi pH 7.0, data fit) was found to be 14.5 ± 1.6 µM. The “amount of glycine betaine bound” value in series [5] (very high protein concentration) is 0.74 mol/mol OpuAC. Also, at purified OpuA [6] (all salt concentrations), the “maximal number of binding sites” value is reported as about 3 nmol/mg OpuA. Further, in the series with OpuAΔSBD, the glycine betaine binding entry is “did not show any glycine betaine binding”.
For orientation: Ki means a dissociation constant, usually derived from enzyme kinetics or from competition with a known ligand. Low values mean a stronger hold on the target, high ones a looser hold on the target. `C[N+](C)(C)CC(O)CC(=O)[O-]` (centres unmarked) [Carnitine]: the “transport into OpuA-containing proteoliposomes” value in series [4] is “not taken up”. For the same compound, the “fluorescence response on direct titration” value in series [5] (∼0.5 µM OpuAC) is “did not reach a stable end-level”. At OpuAC [8], this compound came in with a Ki of 65000 ± 11000 µM.
Take `C[N+]1(C)CCC[C@H]1C(=O)[O-]` [Proline betaine]: the Ki at OpuAC [8] (inhibition of glycine betaine binding, ∼0.5 µM OpuAC) was 41 ± 8 µM; on OpuAC [8] (inhibition of glycine betaine binding, ∼0.5 µM OpuAC, listed as proline betaine), about 41 µM.
For `O=C(O)[C@@H]1CCCN1` [Proline], the “transport into OpuA-containing proteoliposomes” value is “no accumulation of the proline” in series [4]; “entered the vesicles slowly but at an equal rate in the proteoliposomes and the liposomes devoid of OpuA” in series [4] (listed as proline).
